Results reported in patent publication US9889147B2 (CELLACT PHARMA GMBH, priority 2010, dated 2018).

Key:
[1] = molecular target: T1, CES1 (Homo sapiens, UniProt P23141); experiment: Conversion of CAP7.1 to etoposide by CES1 (HPLC); type: in vitro ADME; conditions: 5 μM CAP7.1, sodium phosphate pH 7.4, 37° C.
T1 sequence (P23141 18-567): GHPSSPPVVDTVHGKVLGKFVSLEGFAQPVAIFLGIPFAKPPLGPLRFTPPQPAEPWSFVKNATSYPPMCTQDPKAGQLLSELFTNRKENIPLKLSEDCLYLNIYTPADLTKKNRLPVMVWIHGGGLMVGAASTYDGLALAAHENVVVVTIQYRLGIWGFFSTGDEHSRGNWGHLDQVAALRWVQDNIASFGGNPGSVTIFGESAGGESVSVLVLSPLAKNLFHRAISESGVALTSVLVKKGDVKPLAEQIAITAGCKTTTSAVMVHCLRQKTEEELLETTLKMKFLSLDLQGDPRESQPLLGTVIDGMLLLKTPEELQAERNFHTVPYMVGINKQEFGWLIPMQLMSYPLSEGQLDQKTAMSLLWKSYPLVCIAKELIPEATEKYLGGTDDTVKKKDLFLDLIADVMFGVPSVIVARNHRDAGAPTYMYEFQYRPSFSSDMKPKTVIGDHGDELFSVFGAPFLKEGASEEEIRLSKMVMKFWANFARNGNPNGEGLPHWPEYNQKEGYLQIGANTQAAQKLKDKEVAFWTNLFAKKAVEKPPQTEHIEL
Protocol: (§1) 5 μM CAP7.1 was pre-incubated for 3 min in 999 μl 0.1 mol/l) sodium phosphate (NaH2PO4, Roth, Karlsruhe, Germany) pH 7.4 at 37° C. After that, CES1, CES2 and CES3, respectively, were added. Controls were incubated with 10% foetal calf serum (FCS, positive control) or in buffer (negative control). At different time points, aliquots were subjected to HPLC in order to analyse the formed products.

[2] = test system: tumour cells; conditions: cited from earlier work
[3] = Half life in primates; type: in vivo
[4] = molecular target: T2, CES2 (Homo sapiens, UniProt O00748); experiment: Conversion of CAP7.1 to etoposide by CES2 (HPLC); type: in vitro ADME; conditions: 5 μM CAP7.1, sodium phosphate pH 7.4, 37° C.
T2 sequence (O00748 27-559): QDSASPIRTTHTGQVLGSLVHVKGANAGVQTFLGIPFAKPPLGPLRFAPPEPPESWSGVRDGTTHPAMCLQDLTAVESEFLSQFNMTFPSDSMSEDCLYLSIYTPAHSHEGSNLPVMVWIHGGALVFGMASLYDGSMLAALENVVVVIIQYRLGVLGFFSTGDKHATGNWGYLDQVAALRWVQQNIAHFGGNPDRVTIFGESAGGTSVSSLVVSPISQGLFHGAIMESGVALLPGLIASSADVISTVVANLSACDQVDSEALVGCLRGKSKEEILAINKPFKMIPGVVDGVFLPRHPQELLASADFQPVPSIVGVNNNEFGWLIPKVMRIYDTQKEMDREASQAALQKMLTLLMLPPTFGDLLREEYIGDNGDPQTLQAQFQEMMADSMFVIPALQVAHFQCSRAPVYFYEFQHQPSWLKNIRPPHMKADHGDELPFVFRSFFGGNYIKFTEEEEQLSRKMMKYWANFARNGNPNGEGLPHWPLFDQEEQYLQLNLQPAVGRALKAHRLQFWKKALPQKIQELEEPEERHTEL
Protocol: as §1

[5] = Stability in sodium phosphate buffer (negative control); type: physicochemical; conditions: sodium phosphate pH 7.4, 37° C.
Protocol: as §1

[6] = test system: U937 cells; experiment: Cell cycle analysis in multidrug-resistant U937 cells (propidium iodide); type: cell-based; conditions: 18 h, 24 h and 48 h, CAP7.1, etoposide 10^−4 mol/l
Protocol: The cells were incubated for 48 h. After 18 h, 24 h and 48 h of incubation, respectively, cell cycle analysis was performed as follows:
Cells were washed once with CellWash, fixed with fridge-cold 70% Ethanol for 30 min at 4° C. and washed three times. RNA was digested with RNAse A (100 μg/ml in PBS) for 10 min at room temperature. Cells were washed once with CellWash and stained with propidium iodide (50 μg/ml in PBS) for 5 min at room temperature in the dark. Cells were analyzed immediately by flow cytometry using a FACScanto II apparatus.

[7] = test system: HT-29 cells; experiment: Cytotoxicity on HT-29 cells (XTT); type: cell-based; conditions: cell viability (XTT)
Protocol: HT-29 cells, which are not multidrug-resistant, were grown in DMEM, 10% foetal calf serum, 2 mM glutamine and […] Pen/Strep medium and then washed.
Cells were harvested, counted, and inoculated at the appropriate concentration of 10^4 cells/well (100 μl volume) into 96-well microtiter plates. After 24 h, the drugs were applied to triplicate culture wells, and cultures were incubated for given times at 37° C. XTT was prepared at 1 mg/ml in pre-warmed (37° C.) medium (RPMI 1640) without serum. PMS was prepared at 5 mmol/l (1.53 mg/ml) in PBS. Fresh XTT and PMS were mixed together at appropriate concentrations. For a 25 μmol/l XTT-PMS solution, 25 μl of the 5 mmol/l PMS solution were added per 5 ml of XTT (1 mg/ml). 50 μl of this mixture were added to each well on given time points after cell inoculation. After incubation at 37° C., the plates were mixed on a mechanical plate shaker, and absorbance was measured with an ELISA Reader to determine cell viability.

COc1cc([C@@H]2c3cc4c(cc3C(OC3OC5COC(C)OC5C(O)C3O)C3COC(=O)[C@@H]32)OCO4)cc(OC)c1OC(=O)OCC(O)CO (stereo partly shown) [CAP7.1]
cleavage of CAP7.1 to etoposide by CES1 [1]: efficiently cleaves | potency relative to etoposide, e.g. cytotoxicity on tumour cells [2]: up to 1000 times | half life compared with mice [3]: longer | cleavage of CAP7.1 to etoposide by CES2 [4]: as efficiently as the positive control FCS | stability in buffer (negative control) [5]: stable | fraction of cells in G2 phase with increasing incubation times [6]: increase | IC50 value of CAP7.1 lower than IC50 value of etoposide [7]: 10 fold
